These results are taken from patent US11447485B2, “Class of bifunctional compounds with quanternary ammonium salt structure” (Beijing Showby Pharmaceutical Co., Ltd., priority 2016, dated 2022).

Series [1] in a line: Lung homogenate stability in vitro (dog). The format is in vitro ADME, Beagle dog. The note with it: 8 h, 37° C. Here is the method:
The compounds of the invention were respectively incubated with the lung homogenate of Beagle dogs for 8 hours in a water bath at 37° C., and sample was analysed by LC-MS/MS when the reaction was terminated.

Series [2] relates to M receptor of guinea pig tracheal smooth muscle. The series is described as follows: MA activity: guinea pig isolated trachea, propranolol blocks β receptor, CCh constriction. The note with it: Cavia porcellus; propranolol 10^−5 mol/L, CCh 3×10^−6 mol/L. Here is the method: (2) Blocking Effect of Example Compounds on M Receptor of Guinea Pig Tracheal Smooth Muscle
(§1) Preparation of an isolated tracheal smooth muscle specimen of a guinea pig: same as Experiment Example 1.
Administration method: After trachea flake was stabilized, propranolol hydrochloride solution with a final concentration of 10^−5 mol/L was added to block β receptor for 10 min, carbachol with a final concentration of 3×10^−6 mol/L was added (observing M receptor antagonism of compound after propranolol blocks β receptor), and administration was started when the pressure value of the trachea flake was increased to a stable platform. The experiments were divided into a blank group, a propranolol+blank group, each test sample administration group and a propranolol+each test sample administration group. DMSO solution prepared by K—H solution and 50 μl of test sample solution were added to each group of the blank group and each test sample administration group respectively. The propranolol+blank group and propranolol+each test sample administration group were added with 50 μl propranolol solution for 10 min respectively, and then added with DMSO solution prepared from K—H solution and 50 μl of test sample solution. The test sample administration group was added with the compounds to be tested with final concentrations of 10^−9, 0.3×10^−8, 10^−8, 0.3×10^−7, 10^−7, 0.3×10^−6 and 10^−6 mol/L at cumulative concentration, and the blank group was added with corresponding diluted DMSO solution. The propranolol+each test sample administration group was added with propranolol for 10 min, and then added with the compounds to be tested with final concentrations of 10^−9, 0.3×10^−8, 10^−8, 0.3×10^−7, 10^−7, 0.3×10^−6 and 10^−6 mol/L at cumulative concentration. After the propranolol+blank group was added with propranolol for 10 min, corresponding diluted DMSO solution was added. Medlab was used to record the relaxation degree of tracheal smooth muscle, finally sodium nitroprusside with a final concentration of […] was added as 100% relaxation.

A short description of series [3]: Lung homogenate stability in vitro (human). It is filed as in vitro ADME. Conditions: 8 h, 37° C.
Series [4] can be described thus: Liver microsome metabolic stability in vitro (human). The note with it: Human liver microsomes. Here is the method:
(§2) The area ratio of the 0 min sample was taken as 100%, and the remaining percentage of the compound after incubation at different times was obtained at each time point by comparison with the sample. With the natural logarithm of this percentage on the ordinate and time on the abscissa, a scatter plot was drawn to simulate a straight line with a negative slope of k. The parameters were calculated according to the formula.
(§3) Liver weight indicates the liver weight (g) per kilogram of body weight, and P450 indicates the amount (mg) of P450 enzyme per gram of liver.
A general note: Liver microsomes are vesicles of endoplasmic reticulum, rich in cytochrome P450 enzymes.

Series [5] concerns β2 receptor in guinea pig tracheal smooth muscle. The series is described as follows: BA activity: guinea pig isolated trachea pre-treated with histamine. Conditions: Cavia porcellus, read-out: BA (EC50, nM). Here is the method: (3) The Antagonism of the Example Compounds on β2 Receptor in Guinea Pig Tracheal Smooth Muscle
as §1
Administration Method: After the trachea flake was stabilized, histamine solution with a final concentration of 3×10^−5 mol/L was added for 10 min, carbachol with a final concentration of 3×10^−6 mol/L was added (observing β receptor antagonism), and administration was started when the pressure value of the trachea flake was increased to a stable platform. The experiments were divided into a blank group, a histamine+blank group, each test sample administration group and a histamine+each test sample administration group. DMSO solution prepared by K—H solution and 50 μl of test sample solution were added to each group of the blank group and each test sample administration group respectively. The histamine+blank group and histamine+each test sample administration group were added with 50 μl histamine solution for 10 min respectively, then added with DMSO solution prepared by K—H solution and 50 μl test sample solution. The test sample administration group was added with the compounds to be tested with final concentrations of 10^−9, 0.3×10^−8, 10^−8, 0.3×10^−7, 10^−7, 0.3×10^−6 and 10^−6 mol/L at cumulative concentration, and the blank group was added with corresponding diluted DMSO solution. The histamine+each test sample administration group was added with histamine for 10 min, and then added with the test compounds with final concentrations of 10^−9, 0.3×10^−8, 10^−8, 0.3×10^−7, 10^−7, 0.3×10^−6 and 10^−6 mol/L at cumulative concentration. After the histamine+blank group was added with histamine for 10 m, corresponding diluted DMSO solution was added. Medlab was used to record the relaxation degree of smooth muscle of the trachea flake. Finally theophylline with a final concentration of 2×10^−4 mol/L was added as 100% relaxation.

Series [6] can be described thus: Liver microsome metabolic stability in vitro (Beagle dog). The note with it: Beagle dog liver microsomes. Here is the method: as §2, §3
Series [7] relates to heart rate of Beagle dogs. The series is described as follows: Heart rate changes after iv administration in Beagle dogs. The format is in vivo, Beagle dog. Here is the method:
Beagle dogs were randomly divided into two groups, half male and half female, and were intravenously injected (iv) with 7.5% ethanol solution of compounds of the invention and control compound. Each compound was set up in two dosage groups of 0.01 mg/kg and 0.10 mg/kg.

Series [8] deals with guinea pig tracheal smooth muscle (MABA). Description: MABA activity: relaxation of CCh pre-constricted guinea pig isolated trachea. Conditions: Cavia porcellus; CCh 3×10^−6 mol/L. Here is the method:
(1) The Constriction Effect of Tracheal Smooth Muscle of Guinea Pig Induced by the Example Compounds Antagonizing Carbachol (CCh)
as §1
Administration Method: After the trachea flake were stabilized, carbachol with a final concentration of 3×10^−6 mol/L was added, and administration was started when the pressure value of the trachea flake was increased to a stable platform. The experiments were divided into blank group and each test sample administration group. DMSO solution prepared from K—H solution and 50 μl of each test sample solution were added to each group respectively. The test sample administration group was added with 10^−9, 0.3×10^−8, 10^−8, 0.3×10^−7, 10^−7, 0.3×10^−6 and 10^−6 mol/L of test compound and control substance at cumulative concentration. The blank group was added with corresponding diluted DMSO solution. Medlab was used to record the relaxation degree of smooth muscle of the trachea flake. Finally, isoproterenol with a final concentration of 10^−5 mol/L was added as 100% relaxation.

Series [9] can be described thus: Liver microsome metabolic stability in vitro (SD rat). Conditions: SD rat liver microsomes. Here is the method:
as §2, §3

SMILES strings stand for the structures.

What is called EC50 is the concentration giving half of the maximal effect. Take `OCc1cc([C@@H](O)CNCCCCCCCCC[N+]23CCC(CC2)[C@@H](OC[C@@](O)(c2ccccc2)C2CCCC2)C3)ccc1O.[Br-]` [Compound 7]: the “Residual rate after incubation of dog lung homogenate (%)” value in [1] amounted to 95%. Also, the values for the EC50 in [2], in series [5] and in [8] were 290 ± 12.3 nM, 162 ± 9.8 nM and 72.3 ± 14.6 nM, respectively. The “Residual rate after incubation of human lung homogenate (%)” value in series [3] stood at 93%. The “liver extraction rate (ERh)” value was found to be 0.94 in series [4], 0.98 in series [6] and 0.97 in series [9]. For the same compound, the “0.5-4 h area increase under heart rate curve (%)” value (“0.5-4 h area increase … (%)” below) is recorded as −0.5% in series [7] (0.01 mg/kg iv) and 0% in series [7] (0.10 mg/kg iv).

In the case of `O=c1ccc2c([C@@H](O)CNCCCCCCCCC[N+]34CCC(CC3)[C@@H](OC[C@@](O)(c3ccccc3)C3CCCC3)C4)ccc(O)c2[nH]1.[Br-]` [Compound 12], in series [1], the “Residual rate after incubation of dog lung homogenate (%)” value is 91%. Further, the EC50 in series [2] worked out at 20.1 ± 2.8 nM; in series [5], 13.8 ± 2.3 nM; in [8], 5.8 ± 1.4 nM. In addition, the “Residual rate after incubation of human lung homogenate (%)” value in series [3] turned out to be 98%. Moreover, the “liver extraction rate (ERh)” value is 0.96 in [4], 0.93 in series [6] and 0.98 in series [9]. Further, the “0.5-4 h area increase … (%)” value in series [7] (0.01 mg/kg iv) worked out at 1.2%; in [7] (0.10 mg/kg iv), 3.6%.

As to `CC(Cc1ccc(OCC[N+]23CCC(CC2)[C@@H](OC[C@@](O)(c2ccccc2)C2CCCC2)C3)cc1)NC[C@H](O)c1ccc(O)c(NC=O)c1` (stereo partly drawn) [Compound 61, (R)-(−)-3-[(R)-2-hydroxy-2-cyclopentyl-2-phenyl]ethoxy]-1-{2-[4-(2-{(R)-[2-hydroxy-2-(3-formamido-4-hydroxy)phenyl]ethylamino}propyl)phenoxy]ethyl}-1-azabicyclo[2,2,2]octylonium bromide], in series [1], the “Residual rate after incubation of dog lung homogenate (%)” value turned out to be 89%. The EC50 in [2] came out at 20.6 ± 1.8 nM; in series [5], 12.9 ± 1.8 nM; in series [8], 5 ± 1.1 nM. Further, the “Residual rate after incubation of human lung homogenate (%)” value in [3] stood at 92%. In addition, the “liver extraction rate (ERh)” value in series [4] is recorded as 0.98; in series [6], 0.97; in series [9] it was 0.95. In addition, the “0.5-4 h area increase … (%)” value came out at 0% in series [7] (0.01 mg/kg iv) and 2.1% in [7] (0.10 mg/kg iv).

Take `CC(NC[C@H](O)c1ccc(O)c(CO)c1)c1ccc(OCCC[N+]23CCC(CC2)[C@@H](OC[C@@](O)(c2ccccc2)C2CCCC2)C3)cc1` (some centres unmarked) [Compound 69]: in series [1], the “Residual rate after incubation of dog lung homogenate (%)” value is given as 90%. In addition, the EC50 came out at 27.7 ± 3.4 nM in series [2], 18.7 ± 2.8 nM in series [5] and 7.6 ± 1.8 nM in [8]. Further, in series [3], the “Residual rate after incubation of human lung homogenate (%)” value was found to be 94%. The “liver extraction rate (ERh)” value in [4] amounted to 0.95; in [6], 0.94; in series [9], 0.96. For the same compound, the results for the “0.5-4 h area increase … (%)” value in series [7] (0.01 mg/kg iv) and in [7] (0.10 mg/kg iv) were −5.1% and −3.4%, respectively.

Take `CC(Cc1ccc(OCCC[N+]23CCC(CC2)[C@@H](OC[C@@](O)(c2ccccc2)C2CCCC2)C3)cc1)NC[C@H](O)c1ccc(O)c2[nH]c(=O)ccc12.[Br-]` (some centres unmarked) [Compound 80]: the “Residual rate after incubation of dog lung homogenate (%)” value in series [1] is on record as 92%. The results for the EC50 in series [2], in series [5] and in series [8] were 13.3 ± 1.2 nM, 9.9 ± 1.7 nM and 3.3 ± 0.9 nM, respectively. In series [3], the “Residual rate after incubation of human lung homogenate (%)” value was found to be 92%. For the same compound, the “liver extraction rate (ERh)” value came to 0.92 in series [4], 0.91 in series [6] and 0.92 in [9]. Also, the “0.5-4 h area increase … (%)” value is reported as 4% in [7] (0.01 mg/kg iv) and −5.1% in series [7] (0.10 mg/kg iv).

Consider `CC(NC[C@H](O)c1ccc(O)c(NC=O)c1)c1ccc(OCCC[N+]23CCC(CC2)[C@@H](OC[C@@](O)(c2ccccc2)C2CCCC2)C3)cc1.[Br-]` (some centres unmarked) [Compound 94], for which the “Residual rate after incubation of dog lung homogenate (%)” value in [1] is listed as 96%. In addition, the figures for the half-maximal effective concentration (EC50) in [2], in [5] and in series [8] were 43.5 ± 4.2 nM, 33.5 ± 5.7 nM and 19.8 ± 5.4 nM, respectively. In addition, in series [3], the “Residual rate after incubation of human lung homogenate (%)” value came out at 91%. The “liver extraction rate (ERh)” value in [4] was determined as 0.93; in series [6] it was 0.94; in series [9] it was 0.94. In addition, the “0.5-4 h area increase … (%)” value in series [7] (0.01 mg/kg iv) is recorded as −2.8%; in series [7] (0.10 mg/kg iv) it was 4.6%.

Turning to `O=CNc1cc([C@@H](O)CNCCCOc2ccc(OCCC[N+]34CCC(CC3)[C@@H](OC[C@@](O)(c3ccccc3)C3CCCC3)C4)cc2)ccc1O` [Compound 113, (R)-(−)-3-[(R)-2-hydroxy-2-cyclopentyl-2-phenyl]ethoxy-1-{3-[4-(3-{(R)-[2-hydroxy-2-(3-formamido-4-hydroxy)phenyl]ethylamino}propoxy)phenoxy]propyl}-1-azabicyclo[2,2,2]octylonium bromide], in series [1], the “Residual rate after incubation of dog lung homogenate (%)” value is on record as 93%. Further, the half-maximal effective concentration (EC50) turned out to be 15.6 ± 2.6 nM in series [2], 17.6 ± 1.9 nM in series [5] and 7.2 ± 1.4 nM in [8]. For the same compound, the “Residual rate after incubation of human lung homogenate (%)” value in [3] is listed as 93%. The “liver extraction rate (ERh)” value in [4] is given as 0.97; in series [6] it was 0.96; in series [9], 0.96. Besides, the entries for the “0.5-4 h area increase … (%)” value in series [7] (0.01 mg/kg iv) and in [7] (0.10 mg/kg iv) were −3.4% and 3.3%, respectively.

Regarding `OCc1cc([C@@H](O)CNCCCOc2ccc(OCCC[N+]34CCC(CC3)[C@@H](OC[C@@](O)(c3ccccc3)C3CCCC3)C4)cc2)ccc1O.[Br-]` [Compound 122], the “Residual rate after incubation of dog lung homogenate (%)” value in series [1] came to 92%. For the same compound, the EC50 is 56.7 ± 6.6 nM in series [2], 36.8 ± 4.1 nM in series [5] and 15.6 ± 3.6 nM in series [8]. The “Residual rate after incubation of human lung homogenate (%)” value in series [3] is reported as 95%. Also, the figures for the “liver extraction rate (ERh)” value in series [4], in series [6] and in [9] were 0.93, 0.98 and 0.97, respectively. Besides, the “0.5-4 h area increase … (%)” value amounted to 6.6% in series [7] (0.01 mg/kg iv) and 0% in series [7] (0.10 mg/kg iv).
